Results as given in BindingDB's records for doi:10.1016/j.ejmech.2021.113242 (South China Agricultural University, 2021).

assay: Inhibition of spike glycoprotein S in SARS-CoV-2 pseudovirus infected human 293T/ACE2 cells assessed as inhibition of viral infection measured after 48 hrs by luciferase reporter gene assay

| Structure (SMILES) | IC50 [µM] |
| --- | --- |
| C[C@@H]1O[C@@H](O[C@H]2[C@H](O[C@H]3CC[C@]4(C)[C@H]5CC=C6[C@@H]7CC(C)(C)CC[C@]7(C(=O)NCc7ccccc7)CC[C@@]6(C)[C@]5(C)CC[C@H]4C3(C)C)O[C@H](CO)[C@@H](O[C@@H]3O[C@@H](C)[C@H](O)[C@@H](O)[C@H]3O)[C@@H]2O)[C@H](O)[C@H](O)[C@H]1O | 4.37 |
| COc1cccc(NC(=O)[C@]23CCC(C)(C)C[C@H]2C2=CC[C@@H]4[C@@]5(C)CC[C@H](O[C@@H]6O[C@H](CO)[C@@H](O[C@@H]7O[C@@H](C)[C@H](O)[C@@H](O)[C@H]7O)[C@H](O)[C@H]6O[C@@H]6O[C@@H](C)[C@H](O)[C@@H](O)[C@H]6O)C(C)(C)[C@@H]5CC[C@@]4(C)[C@]2(C)CC3)c1 | 8.33 |
| C[C@@H]1O[C@@H](O[C@H]2[C@H](O[C@H]3CC[C@]4(C)[C@H]5CC=C6[C@@H]7CC(C)(C)CC[C@]7(C(=O)N(C)Cc7ccccc7)CC[C@@]6(C)[C@]5(C)CC[C@H]4C3(C)C)O[C@H](CO)[C@@H](O[C@@H]3O[C@@H](C)[C@H](O)[C@@H](O)[C@H]3O)[C@@H]2O)[C@H](O)[C@H](O)[C@H]1O | 7.76 |
| C[C@@H]1O[C@@H](O[C@H]2[C@H](O[C@H]3CC[C@]4(C)[C@H]5CC=C6[C@@H]7CC(C)(C)CC[C@]7(C(=O)NCCc7ccccc7)CC[C@@]6(C)[C@]5(C)CC[C@H]4C3(C)C)O[C@H](CO)[C@@H](O[C@@H]3O[C@@H](C)[C@H](O)[C@@H](O)[C@H]3O)[C@@H]2O)[C@H](O)[C@H](O)[C@H]1O | 7.37 |
| C[C@@H]1O[C@@H](O[C@H]2[C@H](O[C@H]3CC[C@]4(C)[C@H]5CC=C6[C@@H]7CC(C)(C)CC[C@]7(C(=O)NCc7ccccc7Br)CC[C@@]6(C)[C@]5(C)CC[C@H]4C3(C)C)O[C@H](CO)[C@@H](O[C@@H]3O[C@@H](C)[C@H](O)[C@@H](O)[C@H]3O)[C@@H]2O)[C@H](O)[C@H](O)[C@H]1O | 9.57 |
| COc1ccc(NC(=O)[C@]23CCC(C)(C)C[C@H]2C2=CC[C@@H]4[C@@]5(C)CC[C@H](O[C@@H]6O[C@H](CO)[C@@H](O[C@@H]7O[C@@H](C)[C@H](O)[C@@H](O)[C@H]7O)[C@H](O)[C@H]6O[C@@H]6O[C@@H](C)[C@H](O)[C@@H](O)[C@H]6O)C(C)(C)[C@@H]5CC[C@@]4(C)[C@]2(C)CC3)cc1 | 9.97 |
| COc1ccccc1CNC(=O)[C@]12CCC(C)(C)C[C@H]1C1=CC[C@@H]3[C@@]4(C)CC[C@H](O[C@@H]5O[C@H](CO)[C@@H](O[C@@H]6O[C@@H](C)[C@H](O)[C@@H](O)[C@H]6O)[C@H](O)[C@H]5O[C@@H]5O[C@@H](C)[C@H](O)[C@@H](O)[C@H]5O)C(C)(C)[C@@H]4CC[C@@]3(C)[C@]1(C)CC2 | 16.8 |
| C[C@@H]1O[C@@H](O[C@H]2[C@H](O[C@H]3CC[C@]4(C)[C@H]5CC=C6[C@@H]7CC(C)(C)CC[C@]7(C(=O)Nc7ccccc7Cl)CC[C@@]6(C)[C@]5(C)CC[C@H]4C3(C)C)O[C@H](CO)[C@@H](O[C@@H]3O[C@@H](C)[C@H](O)[C@@H](O)[C@H]3O)[C@@H]2O)[C@H](O)[C@H](O)[C@H]1O | 6.27 |
| COc1ccccc1NC(=O)[C@]12CCC(C)(C)C[C@H]1C1=CC[C@@H]3[C@@]4(C)CC[C@H](O[C@@H]5O[C@H](CO)[C@@H](O[C@@H]6O[C@@H](C)[C@H](O)[C@@H](O)[C@H]6O)[C@H](O)[C@H]5O[C@@H]5O[C@@H](C)[C@H](O)[C@@H](O)[C@H]5O)C(C)(C)[C@@H]4CC[C@@]3(C)[C@]1(C)CC2 | 5.54 |
| C[C@@H]1O[C@@H](O[C@H]2[C@H](O[C@H]3CC[C@]4(C)[C@H]5CC=C6[C@@H]7CC(C)(C)CC[C@]7(C(=O)OCc7ccccc7)CC[C@@]6(C)[C@]5(C)CC[C@H]4C3(C)C)O[C@H](CO)[C@@H](O[C@@H]3O[C@@H](C)[C@H](O)[C@@H](O)[C@H]3O)[C@@H]2O)[C@H](O)[C@H](O)[C@H]1O | 16.8 |
| C[C@@H]1O[C@@H](O[C@H]2[C@H](O[C@H]3CC[C@]4(C)[C@H]5CC=C6[C@@H]7CC(C)(C)CC[C@]7(C(=O)NCc7ccccc7Cl)CC[C@@]6(C)[C@]5(C)CC[C@H]4C3(C)C)O[C@H](CO)[C@@H](O[C@@H]3O[C@@H](C)[C@H](O)[C@@H](O)[C@H]3O)[C@@H]2O)[C@H](O)[C@H](O)[C@H]1O | 6.32 |
| C[C@@H]1O[C@@H](O[C@H]2[C@H](O[C@H]3CC[C@]4(C)[C@H]5CC=C6[C@@H]7CC(C)(C)CC[C@]7(C(=O)NCCCc7ccccc7)CC[C@@]6(C)[C@]5(C)CC[C@H]4C3(C)C)O[C@H](CO)[C@@H](O[C@@H]3O[C@@H](C)[C@H](O)[C@@H](O)[C@H]3O)[C@@H]2O)[C@H](O)[C@H](O)[C@H]1O | 13.1 |
| C[C@@H]1O[C@@H](O[C@H]2[C@H](O[C@H]3CC[C@]4(C)[C@H]5CC=C6[C@@H]7CC(C)(C)CC[C@]7(C(=O)NCc7cccs7)CC[C@@]6(C)[C@]5(C)CC[C@H]4C3(C)C)O[C@H](CO)[C@@H](O[C@@H]3O[C@@H](C)[C@H](O)[C@@H](O)[C@H]3O)[C@@H]2O)[C@H](O)[C@H](O)[C@H]1O | 5.89 |
| O=C(/C=C/c1ccc(O)c2oc(-c3ccc(O)c(O)c3)cc12)O[C@H](Cc1ccc(O)c(O)c1)C(=O)O | 3.85 |
| C[C@@H]1O[C@@H](O[C@H]2[C@H](O[C@H]3CC[C@]4(C)[C@H]5CC=C6[C@@H]7CC(C)(C)CC[C@]7(C(=O)Nc7ccccc7)CC[C@@]6(C)[C@]5(C)CC[C@H]4C3(C)C)O[C@H](CO)[C@@H](O[C@@H]3O[C@@H](C)[C@H](O)[C@@H](O)[C@H]3O)[C@@H]2O)[C@H](O)[C@H](O)[C@H]1O | 18.1 |
| C[C@@H]1O[C@@H](O[C@H]2[C@H](O[C@H]3CC[C@]4(C)[C@H]5CC=C6[C@@H]7CC(C)(C)CC[C@]7(C(=O)NCc7ccccc7F)CC[C@@]6(C)[C@]5(C)CC[C@H]4C3(C)C)O[C@H](CO)[C@@H](O[C@@H]3O[C@@H](C)[C@H](O)[C@@H](O)[C@H]3O)[C@@H]2O)[C@H](O)[C@H](O)[C@H]1O | 5.68 |
| C[C@@H]1O[C@@H](O[C@H]2[C@H](O[C@H]3CC[C@]4(C)[C@H]5CC=C6[C@@H]7CC(C)(C)CC[C@]7(C(=O)NCc7ccccn7)CC[C@@]6(C)[C@]5(C)CC[C@H]4C3(C)C)O[C@H](CO)[C@@H](O[C@@H]3O[C@@H](C)[C@H](O)[C@@H](O)[C@H]3O)[C@@H]2O)[C@H](O)[C@H](O)[C@H]1O | > 20 |
| C[C@@H]1O[C@@H](O[C@H]2[C@H](O[C@H]3CC[C@]4(C)[C@H]5CC=C6[C@@H]7CC(C)(C)CC[C@]7(C(=O)NCc7ccco7)CC[C@@]6(C)[C@]5(C)CC[C@H]4C3(C)C)O[C@H](CO)[C@@H](O[C@@H]3O[C@@H](C)[C@H](O)[C@@H](O)[C@H]3O)[C@@H]2O)[C@H](O)[C@H](O)[C@H]1O | > 20 |
